Assay results as given in patent US4352803A, “Novel naphthyridine derivatives, intermediates thereof, processes for preparation thereof, and use thereof” (Dainippon Pharmaceutical Co., Ltd., priority 1978, dated 1982).
Converted amounts (≈) assume the structure as drawn. Like-named read-outs stand apart in the source and are kept apart here.

Assays:
[1] = tested on: Pseudomonas aeruginosa No. 12; assay: in vivo efficacy against systemic infection in mice, Pseudomonas aeruginosa No. 12; details: NO.12, in Mus musculus, po, 168 h
Description: Male mice (ddY) weighing about 20 g
(3) Pseudomonas aeruginosa No. 12;
(about 5 × 10^3 cells/mouse) of a bacterial
(§2) suspension in trypto-soy broth with 4% mucin.
(§3) Twice, about 5 minutes and 6 hours after infection.
The numerals in the table show ED50 (mg/kg). ED50 values were

[2] = tested on: Serratia marcescens IFC 3736; assay: In vitro antibacterial activity (MIC), Serratia marcescens IFC 3736; type: cell-based; details: IFC3736; Serratia marcescens IFC 3736; read-out: minimum inhibitory concentration (MIC)
Text: (§1) (MIC) (μg/ml) Method; Chemotherapy, 22(6), 1126 (1974)

[3] = tested on: Streptococcus faecalis P-2473; assay: In vitro antibacterial activity (MIC), Streptococcus faecalis P-2473; type: cell-based; details: Enterococcus faecalis, P2473; Streptococcus faecalis P-2473; read-out: minimum inhibitory concentration (MIC)
Text: as §1

Shigella flexneri 2a = assay: In vitro antibacterial activity (MIC), Shigella flexneri 2a; type: cell-based; details: read-out: minimum inhibitory concentration (MIC)
Text: as §1

[4] = tested on: Staphylococcus aureus No. 50774; assay: in vivo efficacy against systemic infection in mice, Staphylococcus aureus No. 50774; details: NO.50774, in Mus musculus, po, 336 h
Description: Male mice (ddY) weighing about 20 g
Intravenous infection with (about
5 × 10^8 cells/mouse) of a bacterial
as §3

[5] = tested on: Salmonella typhimurium 8-9; assay: In vitro antibacterial activity (MIC), Salmonella typhimurium 8-9; type: cell-based; details: Salmonella enterica, read-out: minimum inhibitory concentration (MIC)
Text: as §1

[6] = tested on: Pseudomonas aeruginosa No. 12; assay: In vitro antibacterial activity (MIC), Pseudomonas aeruginosa No. 12; type: cell-based; details: Pseudomonas aeruginosa No. 12; read-out: minimum inhibitory concentration (MIC)
Text: as §1

[7] = tested on: Pseudomonas aeruginosa No. 12; assay: in vivo efficacy on the ascending kidney infection in mice; set-up: species or system mice (ddY-S); details: 120 h; ascending kidney infection with Pseudomonas aeruginosa No. 12; po; mice
Description: Female mice (ddY-S) weighing 22 to 30 g were anesthetized by intravenous injection of sodium pentobarbital at a dose of 50 mg/kg. Through a small suprapubic incision, the urinary bladder was exposed and then infected by injecting 0.1 ml of a 1:10,000 dilution of Pseudomonas aeruginosa No. 12 cultured for 20 hours in trypto-soy broth, using 0.25 ml syringe with 0.25 mm needle. The mice were restrained from drinking water for a period from 1 day before to 1 day after the infection and treated twice a day for 3 days starting on the day of infection. On the 5th day after infection, the kidneys were harvested for the detection of the bacteria, transversely bisected and stamped on King A Agar, which were incubated at 37° C. overnight. No bacterial finding in the kidneys was regarded as protected from the ascending kindey infection. ED50 values were calculated by probit analysis.

[8] = Urinary excretion in dogs; type: in vivo, Beagle dogs; details: dog, urine, po, 25 mg/kg, urine pooled over 24 hours, oral 25 mg/kg
in vivo = details: mouse, in vivo, po
Description: The number of dead mice was counted after 7 days, and the value of median lethal dose (LD50, mg/kg) was calculated in accordance with the Behrens-Kaerber method.

[9] = tested on: Shigella flexneri 4a P-330; assay: In vitro antibacterial activity (MIC), Shigella flexneri 4a P-330; type: cell-based; details: 4AP330, read-out: minimum inhibitory concentration (MIC)
Text: as §1

Plasma level in dogs = type: in vivo, Beagle dogs; details: dog, plasma
Description: Two male Beagle dogs weighing 12 kg each were orally given a capsule containing one of compounds 1 and 2 at a dose of 25 mg/kg with 200 ml of milk respectively. Blood samples were taken by venipuncture from the two dogs at each 0.5, 1, 2, 3, 6, 8 and 10 hours after administration, and centrifuged individually to separate the plasma.
Drug levels were determined by the thin-layer cup-plate method using Escherichia coli Kp as an indicator organism.

[10] = tested on: Streptococcus pyogenes 65A; assay: In vitro antibacterial activity (MIC), Streptococcus pyogenes 65A; type: cell-based; details: read-out: minimum inhibitory concentration (MIC)
Text: as §1

[11] = tested on: Pseudomonas aeruginosa Tsuchijima; assay: In vitro antibacterial activity (MIC), Pseudomonas aeruginosa Tsuchijima; type: cell-based; details: Pseudomonas aeruginosa Tsuchijima; read-out: minimum inhibitory concentration (MIC)
Text: as §1

[12] = tested on: Salmonella enteritidis No. 1891; assay: In vitro antibacterial activity (MIC), Salmonella enteritidis No. 1891; type: cell-based; details: Salmonella enterica, read-out: minimum inhibitory concentration (MIC)
Text: as §1

[13] = tested on: Staphylococcus aureus 209P JC-1; assay: In vitro antibacterial activity (MIC), Staphylococcus aureus 209P JC-1; type: cell-based; details: Staphylococcus aureus 209P JC-1; read-out: minimum inhibitory concentration (MIC)
Text: as §1

[14] = tested on: Enterobacter cloacae P-2540; assay: In vitro antibacterial activity (MIC), Enterobacter cloacae P-2540; type: cell-based
Text: as §1

[15] = tested on: Klebsiella pneumoniae No. 13; assay: In vitro antibacterial activity (MIC), Klebsiella pneumoniae No. 13; type: cell-based; details: Klebsiella pneumoniae No. 13; read-out: minimum inhibitory concentration (MIC)
Text: as §1

Escherichia coli P-140a = assay: In vitro antibacterial activity (MIC), Escherichia coli P-140a; type: cell-based; details: read-out: minimum inhibitory concentration (MIC)
Text: as §1

[16] = tested on: Corynebacterium pyogenes C-21; assay: In vitro antibacterial activity (MIC), Corynebacterium pyogenes C-21; type: cell-based; details: Rhodococcus (subgen. Prescottella) equi, C21; Corynebacterium pyogenes C-21; read-out: minimum inhibitory concentration (MIC)
Text: as §1

Escherichia coli P-5101 [17] = assay: in vivo efficacy against systemic infection in mice, Escherichia coli P-5101; details: P5101, in Mus musculus, po, 168 h
Description: Male mice (ddY) weighing about 20 g
Intraperitoneal infection with (about
9 × 10^6 cells/mouse) of a bacterial
as §2, §3

Proteus mirabilis P-2381 = assay: In vitro antibacterial activity (MIC), Proteus mirabilis P-2381; type: cell-based
Text: as §1

Escherichia coli P-5101 [18] = assay: In vitro antibacterial activity (MIC), Escherichia coli P-5101; type: cell-based
Text: as §1

Proteus morganii Kono = assay: In vitro antibacterial activity (MIC), Proteus morganii Kono; type: cell-based; details: Morganella morganii, read-out: minimum inhibitory concentration (MIC)
Text: as §1

[19] = tested on: Escherichia coli NIHJ JC-2; assay: In vitro antibacterial activity (MIC), Escherichia coli NIHJ JC-2; type: cell-based
Text: as §1

[20] = tested on: Staphylococcus aureus No. 50774; assay: In vitro antibacterial activity (MIC), Staphylococcus aureus No. 50774; type: cell-based
Text: as §1

[21] = tested on: Gram-positive bacteria and Gram-negative bacteria; assay: In vitro antibacterial activity against 19 strains of bacteria (overall); type: cell-based; details: comparisons are with compounds of the invention
Text: as §1

[22] = tested on: Gram-positive and Gram-negative bacteria; assay: in vivo therapeutic efficacy against systemic infections in mice (overall); set-up: species or system mice (ddY); details: systemic infections with Gram-positive and Gram-negative bacteria

**Q.** Which ED50 [1] does the source give for `CCn1cc(C(=O)O)c(=O)c2cc(F)c(N3CCNCC3)nc21` [Compound 1] here?
**A.** Its ED50 is 9 mg/kg.

**Q.** What about the MIC [2] of the same compound?
**A.** The MIC was 0.39 µg/mL (≈ 1.22 µM).

**Q.** What about the MIC [3] of the same compound?
**A.** The MIC was 12.5 µg/mL (≈ 39 µM).

**Q.** What about the MIC (Shigella flexneri 2a) of the same compound?
**A.** The MIC was 0.2 µg/mL (≈ 0.624 µM).

**Q.** And the ED50 [4]?
**A.** The ED50 was 10 mg/kg.

**Q.** And the MIC ([5]; Salmonella typhimurium 8-9)?
**A.** Its MIC is 0.1 µg/mL (≈ 0.312 µM).

**Q.** And the MIC [6]?
**A.** The MIC was 0.78 µg/mL (≈ 2.44 µM).

**Q.** And the ED50 [7]?
**A.** The ED50 was 2.4 mg/kg.

**Q.** And the concentration at 24 h [8]?
**A.** The concentration at 24 h was 606000 ng/mL.

**Q.** What about the dose excreted at 24 h ([8]; read-out: urinary recovery) of the same compound?
**A.** The dose excreted at 24 h was 40.7%.

**Q.** And the LD50 at 168 h (in vivo)?
**A.** Its LD50 at 168 h is over 4000 mg/kg.

**Q.** And the MIC [9]?
**A.** The MIC was 0.39 µg/mL (≈ 1.22 µM).

**Q.** What about the concentration at 0.5 h (Plasma level in dogs; 0.5 hr after oral 25 mg/kg, nd: nondetective) of the same compound?
**A.** The concentration at 0.5 h was 600 ng/mL.

**Q.** What about the concentration at 1 h (Plasma level in dogs; 1 hr after oral 25 mg/kg, nd: nondetective) of the same compound?
**A.** Its concentration at 1 h is 2400 ng/mL.

**Q.** What about the concentration at 2 h (Plasma level in dogs; 2 hr after oral 25 mg/kg) of the same compound?
**A.** Its concentration at 2 h is 5500 ng/mL.

**Q.** What about the concentration at 3 h (Plasma level in dogs; 3 hr after oral 25 mg/kg) of the same compound?
**A.** The concentration at 3 h was 5900 ng/mL.

**Q.** And the concentration at 6 h (Plasma level in dogs; 6 hr after oral 25 mg/kg)?
**A.** The concentration at 6 h was 4200 ng/mL.

**Q.** And the concentration at 8 h (Plasma level in dogs; 8 hr after oral 25 mg/kg)?
**A.** Its concentration at 8 h is 3700 ng/mL.

**Q.** What about the concentration at 10 h (Plasma level in dogs; 10 hr after oral 25 mg/kg) of the same compound?
**A.** The concentration at 10 h was 2400 ng/mL.

**Q.** And the MIC ([10]; Streptococcus pyogenes 65A)?
**A.** Its MIC is 12.5 µg/mL (≈ 39 µM).

**Q.** And the MIC [11]?
**A.** The MIC was 0.39 µg/mL (≈ 1.22 µM).

**Q.** And the MIC ([12]; Salmonella enteritidis No. 1891)?
**A.** Its MIC is 0.1 µg/mL (≈ 0.312 µM).

**Q.** What about the MIC [13] of the same compound?
**A.** The MIC was 0.78 µg/mL (≈ 2.44 µM).

**Q.** What about the MIC ([14]; P2540, Enterobacter cloacae P-2540, read-out: minimum inhibitory concentration (MIC)) of the same compound?
**A.** The MIC was 0.2 µg/mL (≈ 0.624 µM).

**Q.** What about the MIC [15] of the same compound?
**A.** The MIC was 0.2 µg/mL (≈ 0.624 µM).

**Q.** What about the MIC (Escherichia coli P-140a; P140A, Escherichia coli P-140a) of the same compound?
**A.** The MIC was 0.2 µg/mL (≈ 0.624 µM).

**Q.** What about the MIC [16] of the same compound?
**A.** The MIC was 1.56 µg/mL (≈ 4.87 µM).

**Q.** And the ED50 (Escherichia coli P-5101 [17])?
**A.** Its ED50 is 1.8 mg/kg.

**Q.** And the MIC (Proteus mirabilis P-2381; P2381, Proteus mirabilis P-2381, read-out: minimum inhibitory concentration (MIC))?
**A.** Its MIC is 0.39 µg/mL (≈ 1.22 µM).

**Q.** What about the MIC (Escherichia coli P-5101 [18]; P5101, Escherichia coli P-5101, read-out: minimum inhibitory concentration (MIC)) of the same compound?
**A.** Its MIC is 0.1 µg/mL (≈ 0.312 µM).

**Q.** What about the MIC (Proteus morganii Kono; Proteus morganii Kono) of the same compound?
**A.** The MIC was 0.2 µg/mL (≈ 0.624 µM).

**Q.** What about the MIC ([19]; NIHJJC2, Escherichia coli NIHJ JC-2, read-out: minimum inhibitory concentration (MIC)) of the same compound?
**A.** The MIC was 0.2 µg/mL (≈ 0.624 µM).

**Q.** What about the MIC ([20]; Staphylococcus aureus No. 50774, read-out: minimum inhibitory concentration (MIC)) of the same compound?
**A.** The MIC was 0.78 µg/mL (≈ 2.44 µM).

**Q.** Which results are given for `CCn1cc(C(=O)O)c(=O)c2cc(Cl)c(N3CCNCC3)cc21` [Compound C, 6-Chloro-1-ethyl-1,4-dihydro-4-oxo-7-(1-piperazinyl)quinoline-3-carboxylic acid]?
**A.** ED50 [1]: > 100 mg/kg; MIC [2]: 0.78 µg/mL (≈ 2.32 µM); MIC [3]: 6.25 µg/mL (≈ 18.6 µM); MIC (Shigella flexneri 2a): 0.39 µg/mL (≈ 1.16 µM); ED50 [4]: ~100 mg/kg; MIC ([5]; TYPHIMURIUM): 0.2 µg/mL (≈ 0.596 µM); MIC [6]: 3.13 µg/mL (≈ 9.32 µM); LD50 at 168 h (in vivo): > 2000 mg/kg; MIC [9]: 0.2 µg/mL (≈ 0.596 µM); MIC ([10]; Streptococcus pyogenes, 65A): 6.25 µg/mL (≈ 18.6 µM); MIC [11]: 3.13 µg/mL (≈ 9.32 µM); MIC ([12]; ENTERITIDIS): 0.2 µg/mL (≈ 0.596 µM); MIC [13]: 0.78 µg/mL (≈ 2.32 µM); antibacterial activity (in words) [21]: clearly inferior; MIC ([14]; Enterobacter cloacae, P2540, read-out: minimum inhibitory concentration (MIC)): 0.2 µg/mL (≈ 0.596 µM); therapeutic effect / in vivo antibacterial activity (in words) [22]: clearly inferior; MIC [15]: 0.78 µg/mL (≈ 2.32 µM); MIC (Escherichia coli P-140a; Escherichia coli): 0.2 µg/mL (≈ 0.596 µM); MIC [16]: 1.56 µg/mL (≈ 4.65 µM); ED50 (Escherichia coli P-5101 [17]): ~15 mg/kg; MIC (Proteus mirabilis P-2381; Proteus mirabilis, P2381, read-out: minimum inhibitory concentration (MIC)): 0.39 µg/mL (≈ 1.16 µM); MIC (Escherichia coli P-5101 [18]; Escherichia coli, P5101, read-out: minimum inhibitory concentration (MIC)): 0.2 µg/mL (≈ 0.596 µM); MIC (Proteus morganii Kono): 0.39 µg/mL (≈ 1.16 µM); MIC ([19]; Escherichia coli, NIHJJC2, read-out: minimum inhibitory concentration (MIC)): 0.39 µg/mL (≈ 1.16 µM); MIC ([20]; Staphylococcus aureus, NO.50774, read-out: minimum inhibitory concentration (MIC)): 1.56 µg/mL (≈ 4.65 µM)
